Data as given in US6573284B1, “Method of treating melanoma” (priority 1996, dated 2003).
Entries after “also recorded” stand apart in the source; their conditions may differ.

Assays:
[1] = tested on: mushroom tyrosinase; experiment: Oximetry: oxidation of substrates by tyrosinase; type: biochemical; conditions: 100 μM substrate, 165 units of tyrosinase/ml, room temperature; compared with tyrosine
[2] = tested on: human melanoma (C32, G361 and STMl1la) and nonmelanoma derived cell lines (Caki-2 and CHO); type: cell-based
[3] = tested on: tyrosinase; experiment: Release of drug from prodrug upon treatment with tyrosinase (TLC, GCMS); type: biochemical; conditions: DMSO/phosphate buffer pH 7.2, 25° C., 1 hour; TLC and GCMS

SMILES: CC(=O)N[C@@H](Cc1ccc(O)cc1)C(=O)O [N-acetyl tyrosine]
- oxidation by tyrosinase (utilization of oxygen with respect to time) [1]: oxidised, but at a lower rate than tyrosine

SMILES: NCCc1ccc(O)c(O)c1 [Compound B]
- relative toxicity (inverse of the IC50) [2]: essentially non-toxic

SMILES: COc1ccc(O)cc1 [4-Hydroxyanisole, 4-hydroxyanisole]
- oxidation by tyrosinase (utilization of oxygen with respect to time) [1]: oxidised, but at a lower rate than tyrosine

SMILES: O=C(NCCc1ccc(O)cc1)Oc1ccc(N(CCCl)CCCl)cc1 [Prodrug (1)]
- release of mustard drug upon tyrosinase treatment [3]: a component of identical Rf to the authentic mustard drug had been produced

SMILES: O=C(NCCc1ccc(O)c(O)c1)Oc1ccc(N(CCCl)CCCl)cc1 [Compound A, N-(N-bis-chlorethyl-4-amino-phenyloxycarbonyl)-3-hydroxy-tyramine]
- melting point: 80 °C (dec.)
- oxidation by tyrosinase (utilization of oxygen with respect to time) [1]: oxidised by tyrosinase, although the rate of the reaction was lower than for the normal substrate
- relative toxicity (inverse of the IC50) [2]: relatively non-toxic; also recorded: increasing toxicity with tyrosinase activity
